{"source": "paper PMC8557474", "about": "“Reliability of the AR-CALUX®In Vitro Method Used to Detect Chemicals with (Anti)Androgen Activity: Results of an International Ring Trial” (Toxicological Sciences, 2021)", "key": {"androgen receptor [1]": {"tested_on": "androgen receptor", "set-up": "method as in Park et al., 2021", "settings": "ref Park et al., 2021; cited from earlier work"}, "androgen receptor [2]": {"tested_on": "androgen receptor", "settings": "tested at high concentrations (10 µM); ref Sonneveld et al., (2005); cited from earlier work"}, "[3]": {"target": "T1, human androgen receptor (hAR) (Homo sapiens, UniProt P10275)", "T1 construct": "host or cells: U2-OS human osteosarcoma cells (ATCC HTB 96), stably transfected (AR-CALUX cell line)", "T1 sequence (P10275 1-920)": "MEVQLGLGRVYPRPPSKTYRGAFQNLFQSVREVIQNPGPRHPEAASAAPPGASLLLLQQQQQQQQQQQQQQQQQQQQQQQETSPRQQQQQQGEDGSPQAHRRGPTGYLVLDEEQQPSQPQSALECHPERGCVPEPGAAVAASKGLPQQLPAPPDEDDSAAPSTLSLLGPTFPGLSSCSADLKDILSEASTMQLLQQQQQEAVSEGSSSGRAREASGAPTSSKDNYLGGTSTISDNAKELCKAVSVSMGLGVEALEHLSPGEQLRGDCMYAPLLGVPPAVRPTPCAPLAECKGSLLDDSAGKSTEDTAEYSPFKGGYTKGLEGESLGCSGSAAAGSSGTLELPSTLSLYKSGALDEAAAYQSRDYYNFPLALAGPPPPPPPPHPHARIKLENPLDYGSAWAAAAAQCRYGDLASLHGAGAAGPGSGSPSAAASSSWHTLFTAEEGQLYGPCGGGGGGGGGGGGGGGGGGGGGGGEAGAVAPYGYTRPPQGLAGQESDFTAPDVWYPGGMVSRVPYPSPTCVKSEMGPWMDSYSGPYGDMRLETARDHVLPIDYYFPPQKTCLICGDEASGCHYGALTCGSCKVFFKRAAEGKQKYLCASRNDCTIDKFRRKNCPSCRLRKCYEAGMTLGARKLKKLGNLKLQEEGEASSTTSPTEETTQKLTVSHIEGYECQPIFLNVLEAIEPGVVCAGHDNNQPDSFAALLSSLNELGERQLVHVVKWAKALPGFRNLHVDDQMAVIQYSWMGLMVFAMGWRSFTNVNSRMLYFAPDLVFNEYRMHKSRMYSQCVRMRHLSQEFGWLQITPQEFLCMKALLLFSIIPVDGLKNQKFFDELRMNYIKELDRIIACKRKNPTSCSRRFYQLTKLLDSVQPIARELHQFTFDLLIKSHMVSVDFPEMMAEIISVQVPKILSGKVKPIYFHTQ", "test": "cell-based", "assay_type": "cell-based", "from_the_text": "(§1) The AR-CALUX® cell line was created by BioDetection Systems (BDS). It can be purchased from BDS with a license (https://www.biodetectionsystems.com). The human osteosarcoma cell line U2-OS (ATCC HTB 96) was transfected with 2 constructs: pSG5-neo-hAR carrying the cDNA of a human androgen receptor (hAR) under a constitutive promoter, and, a luciferase reporter gene which is preceded by a triple tandem of AREs in front of a TATA box (3x ARE Luc). […] The AR-CALUX® cell line was obtained from the test method developer BDS. EURL ECVAM prepared a master cell bank and a large working cell bank which were tested for the absence of mycoplasma, bacteria, fungi, and yeast and for the absence of Hepatitis B and C and HIV. In addition, to verifying the authenticity of the cell line, Short Tandem Repeat (STR) profiling was carried out to confirm the test system to be U2-OS cells. […] The laboratories were requested, at the end of each part of the study (Parts 1, 2, and 3), to perform a mycoplasma test of their choice. Additional aliquots were sent to EURL ECVAM for a reanalysis of authenticity.\n(§2) Subsequently, the test chemical was assessed with a prescreen run (dilution steps of 10) and simultaneously with the quantitative cytotoxicity test to determine (1) cytotoxic concentrations, (2) the response, and (3) the appropriate dose range to be tested. […] The cytotoxicity test was performed once more. Test chemicals were diluted in media and consisted of 8 serial dilutions. Each dilution was tested in triplicate.\n(§3) Each experiment (run) was comprised of a maximum of 6 plates. The first plate would contain 8 serial dilutions of the reference chemical DHT (for agonism) or Flutamide (for antagonism), while the positive and negative controls were added at fixed concentrations. In addition, a solvent control was added (medium without the chemical but with DMSO 0.1%).\nA. Positive when the relative induction (Yc) of the test item is ≥ 10% (REF RPC10) for two or more consecutive concentrations."}, "[4]": {"target": "T1, human androgen receptor (hAR)", "test": "AR-CALUX antagonist assay (medium spiked with DHT at EC50)", "assay_type": "cell-based", "from_the_text": "as §1, §2, §3\nFor the antagonist assay, the medium was supplemented with DHT at EC50 concentration (standard assay). […] Each antagonist assay was accompanied by a specificity control test carried out on the same plate.\nA. Positive (competitive antagonist) when the relative induction (Yc) of the test item is ≤ 80% (REF RPC80) for two or more consecutive concentrations and […]"}, "androgen receptor [5]": {"tested_on": "androgen receptor", "settings": "ref OECD, 2020b; cited from earlier work"}, "androgen receptor [6]": {"tested_on": "androgen receptor", "set-up": "method as in Park et al., 2021", "settings": "ref Park et al., 2021; cited from earlier work", "remark": "listed apart in the source"}, "[7]": {"tested_on": "AR-CALUX cell line (U2-OS)", "test": "Cytotoxicity in the AR-CALUX assay (LDH leakage and visual inspection)", "assay_type": "cell-based, human", "settings": "agonist assay", "method": "Each test chemical was firstly tested at the highest soluble concentration, starting from 50 mg/ml. Subsequently, the test chemical was assessed with a prescreen run (dilution steps of 10) and simultaneously with the quantitative cytotoxicity test to determine (1) cytotoxic concentrations, (2) the response, and (3) the appropriate dose range to be tested. […] The cytotoxicity test was performed once more. Test chemicals were diluted in media and consisted of 8 serial dilutions. Each dilution was tested in triplicate.\nCytotoxicity was evaluated in both the agonist and antagonist assay and was carried out with the LDH test which can be performed in parallel to the agonist/antagonist assay and for which no extra plates have to be prepared. A drawback of this test is that the measurement will occur when leakage happens, ie, when the cell wall is degrading and thus the cell is dead. Early events in the onset of cell death cannot be measured with this test. For this reason, the AR-CALUX® method stated that the cytotoxicity of the exposed cells should also be assessed visually (microscopy)."}, "androgen receptor [8]": {"tested_on": "androgen receptor", "set-up": "method as in Kleinstreuer et al., 2017", "settings": "ref Kleinstreuer et al., 2017; cited from earlier work"}}}
{"smiles": "CC(=O)[C@H]1CC[C@H]2[C@@H]3CCC4=CC(=O)CC[C@]4(C)[C@H]3CC[C@]12C", "note": "[Progesterone]", "values": [{"measurement": "22Rv1/MMTV/GR-KO TA agonist result in words", "setting": "androgen receptor [1]", "value": "positive"}, {"measurement": "RTA in comparison to DHT", "setting": "androgen receptor [2]", "value": 36, "unit": "%"}]}
{"smiles": "CC(C)(O)C(=O)Nc1ccc([N+](=O)[O-])c(C(F)(F)F)c1", "note": "[Hydroxyflutamide]", "values": [{"measurement": "AR-CALUX agonist result in words", "setting": "[3]", "value": "negative"}, {"measurement": "Agonist classification per run, Lab 1", "setting": "[3]", "value": "N N N"}, {"measurement": "Agonist classification per run, Lab 2", "setting": "[3]", "value": "N N N"}, {"measurement": "Agonist classification per run, Lab 3", "setting": "[3]", "value": "N N N"}, {"measurement": "Agonist classification per run, Lab 4", "setting": "[3]", "value": "N N N"}, {"measurement": "Antagonist classification per run, Lab 1", "setting": "[4]", "value": "P P P"}, {"measurement": "Antagonist classification per run, Lab 2", "setting": "[4]", "value": "P P P"}, {"measurement": "Antagonist classification per run, Lab 3", "setting": "[4]", "value": "P P P"}, {"measurement": "Antagonist classification per run, Lab 4", "setting": "[4]", "value": "P P P"}, {"measurement": "AR-EcoScreen agonist result in words", "setting": "androgen receptor [5]", "value": "negative"}, {"measurement": "22Rv1/MMTV/GR-KO TA agonist result in words", "setting": "androgen receptor [1]", "value": "positive"}]}
{"smiles": "C[C@]12CC[C@@H]3c4ccc(O)cc4CC[C@H]3[C@@H]1CC[C@@H]2O", "note": "[17β-Estradiol]", "values": [{"measurement": "AR-EcoScreen agonist result in words", "setting": "androgen receptor [5]", "value": "AR agonist activity"}, {"measurement": "22Rv1/MMTV/GR-KO TA agonist result in words", "setting": "androgen receptor [1]", "value": "AR agonist activity"}, {"measurement": "22Rv1/MMTV/GR-KO TA antagonist result in words", "setting": "androgen receptor [6]", "value": "AR antagonist response"}]}
{"smiles": "C#C[C@]1(O)CC[C@H]2[C@@H]3CCc4cc(O)ccc4[C@H]3CC[C@@]21C", "note": "[17α-Ethynyl estradiol]", "values": [{"measurement": "AR-EcoScreen agonist result in words", "setting": "androgen receptor [5]", "value": "negative"}, {"measurement": "22Rv1/MMTV/GR-KO TA agonist result in words", "setting": "androgen receptor [1]", "value": "positive"}]}
{"smiles": "CC(=O)O[C@]1(C(C)=O)CC[C@H]2[C@@H]3C=C(Cl)C4=CC(=O)[C@@H]5C[C@@H]5[C@]4(C)[C@H]3CC[C@@]21C", "note": "[Cyproterone acetate]", "values": [{"measurement": "highest nontoxic concentration", "setting": "[7]", "value": 3, "unit": "µM"}, {"measurement": "AR-Reference list agonist result in words", "setting": "androgen receptor [8]", "value": "weak positive"}]}
